Experimental data: patent publication US7960415B2, “Caspase inhibitors and uses thereof” (Vertex Pharmaceutical Incoporated, priority 2003, dated 2011)

Legend:
Jurkat E6.1 cells = experiment: Anti-Fas induced apoptosis assay; assay type: cell-based; details: Homo sapiens, anti-Fas antibody CH-11 10 ng/ml, 16-18 hrs, DNA fragmentation
Excerpt: Cellular apoptosis may be induced by the binding of Fas ligand (FasL) to its receptor, CD95 (Fas). CD95 is one of a family of related receptors, known as death receptors, which can trigger apoptosis in cells via activation of the caspase enzyme cascade. The process is initiated by the binding of the adapter molecule FADD/MORT-1 to the cytoplasmic domain of the CD-95 receptor-ligand complex. Caspase-8 then binds FADD and becomes activated, initiating a cascade of events that involve the activation of downstream caspases and subsequent cellular apoptosis. Apoptosis can also be induced in cells expressing CD95 e.g., the Jurkat E6.1 T cell lymphoma cell line, using an antibody, rather than FasL, to crosslink the cell surface CD95. Anti-Fas-induced apoptosis is also triggered via the activation of caspase-8. This provides the basis of a cell based assay to screen compounds for inhibition of the caspase-8-mediated apoptotic pathway.
Jurkat E6.1 cells are cultured in complete medium consisting of RPMI-1640 (Sigma No)+10% foetal calf serum (Gibco BRL No. 10099-141)+2 mM L-glutamine (Sigma No. G-7513). The cells are harvested in log phase of growth. 100 ml of cells at 5-8×10^5 cells/ml are transferred to sterile 50 ml Falcon centrifuge tubes and centrifuged for 5 minutes at 100×g at room temperature. The supernatant is removed and the combined cell pellets resuspended in 25 ml of complete medium. The cells are counted and the density adjusted to 2×10^6 cells/ml with complete medium.
The test compound is dissolved in dimethyl sulfoxide (DMSO)(Sigma No. D-2650) to give a 100 mM stock solution. This is diluted to 400 μM in complete medium, then serially diluted in a 96-well plate prior to addition to the cell assay plate.
100 μl of the cell suspension ([…]) is added to each well of a sterile 96-well round-bottomed cluster plate (Costar No. 3790). 50 μl of compound solution at the appropriate dilution and 50 μl of anti-Fas antibody, clone CH-11 (Upstate, Cat No. 1 544 675) at a final concentration of 10 ng/ml, are added to the wells. Control wells are set up minus antibody and minus compound but with a serial dilution of DMSO as vehicle control. The plates are incubated for 16-18 hrs at 37° C. in 5% CO2 and 95% humidity.
Apoptosis of the cells is measured by the quantitation of DNA fragmentation using a ‘Cell Death Detection Assay’ from Roche diagnostics, No. 1544 675. After incubation for 16-18 hrs the assay plates are centrifuged at 100×g at room temperature for 5 minutes. 150 μl of the supernatant are removed and replaced by 150 μl of fresh complete medium. The cells are then harvested and 200 μl of the lysis buffer supplied in the assay kit are added to each well. The cells are triturated to ensure complete lysis and incubated for 30 minutes at 4° C. The plates are then centrifuged at 1900×g for 10 minutes and the supernatants diluted 1:20 in the incubation buffer provided. 100 μl of this solution is then assayed according to the manufacturer's instructions supplied with the kit. OD405 nm is measured 20 minutes after addition of the final substrate in a SPECTRAmax Plus plate reader (Molecular Devices). OD405 nm is plotted versus compound concentration and the IC50 values for the compounds are calculated using the curve-fitting program SOFTmax Pro (Molecular Devices) using the four parameter fit option.

rat cortical neurons = experiment: Hypoxia-induced apoptosis of rat cortical neurons; assay type: cell-based, Wistar rat; details: Cortical neurone, 95% N2/5% CO2, Cell Death Detection ELISA (DNA fragmentation)
Procedure: Cortical neurons are dissociated from Wistar rat embryos (E17) by a modification of the procedure of Rogers et al. 1997, Brain Res. Bulletin, 44:131. Briefly, cerebral cortices are isolated aseptically from 15-20 Wistar rat embryos. A cell suspension is prepared by mincing the cerebral cortices and digesting them with papain. Cells are washed with ovomucoid enzyme inhibitor and DNaseI and plated onto Poly-D lysine coated plates in high glucose DMEM containing 10% heat-inactivated fetal calf serum, L-glutamine, penicillin and streptomycin. The yield of neurons is […] per embryo and they are 80-90% viable as assessed by Trypan blue exclusion.
The neurons are cultured in complete medium at 37° C. in a normal atmosphere for 48 hours prior to the hypoxia experiments. For hypoxia, the normal cell medium is replaced by oxygen-depleted serum-free medium. Cells are incubated in an atmosphere of 95% N2/5% CO2 for various lengths of time. Compounds are dissolved in DMSO at 100 mM then diluted in medium and added to the culture from time=0. The level of apoptosis is measured using a Cell Death Detection ELISA kit (Roche) which detects DNA fragmentation. Plates are read at 405 nm. Controls included cells cultured in aerobic conditions in serum-containing medium (+serum) and cells cultured in aerobic conditions in serum-deprived medium (−serum).

[1] = test system: IL-1β secretion from human whole blood; experiment: Inhibition of IL-1β secretion from whole blood; assay type: cell-based; details: human whole blood diluted 1:2, LPS 5 ng/ml, 18 hours, ELISA
Procedure: Human blood is freshly drawn from healthy donors and diluted 1:2 in PBS. To 500 μl of diluted blood […] of prediluted test compound in RPMI medium and […] LPS (5 ng/ml final concentration on the plate) are added (LPS, Serotype 0111:B4, Sigma L3012). After stimulation for 18 hours supernatants are collected and assayed for IL-1β levels using the appropriate ELISA kit (R&D systems).

C[C@@H](C(=O)NC(CC(=O)O)C(=O)CF)n1cccc(NC(=O)c2ccccc2)c1=O (stereo partly drawn) [Compound 26, (S)-3-[2-(3-Benzoylamino-2-oxo-2H-pyridin-1-yl)-propionylamino]-5-fluoro-4-oxo-pentanoic acid]
IC50 (Jurkat E6.1 cells): 500 to 2000 nM

CCC(=O)Nc1cccn([C@@H](CC(C)C)C(=O)NC(CC(=O)O)C(=O)CF)c1=O (stereo partly drawn) [Compound 36, (S)-5-Fluoro-3-[4-methyl-2-(2-oxo-3-propionylamino-2H-pyridin-1-yl)-pentanoylamino]-4-oxo-pentanoic acid]
IC50 (rat cortical neurons): 1000 to 10000 nM
IC50 [1]: 500 to 5000 nM
IC50 (Jurkat E6.1 cells): 500 to 2000 nM

CC[C@@H](C(=O)NC(CC(=O)O)C(=O)CF)n1cc(C)cc(NC(=O)Cc2ccccc2)c1=O (stereo partly drawn) [Compound 37, (S)-5-Fluoro-3-[2-(5-methyl-2-oxo-3-phenylacetylamino-2H-pyridin-1-yl)-butyrylamino]-4-oxo-pentanoic acid]
IC50 (rat cortical neurons): 1000 to 10000 nM
IC50 (Jurkat E6.1 cells): < 500 nM

CC[C@@H](C(=O)NC(CC(=O)O)C(=O)CF)n1cccc(NC(=O)c2c(Cl)cccc2Cl)c1=O (stereo partly drawn) [Compound 31, (S)-3-{2-[3-(2,6-Dichloro-benzoylamino)-2-oxo-2H-pyridin-1-yl]-butyrylamino}-5-fluoro-4-oxo-pentanoic acid]
IC50 (rat cortical neurons): 1000 to 10000 nM
IC50 (Jurkat E6.1 cells): < 500 nM

CC[C@@H](C(=O)N[C@@H](CC(=O)O)C(=O)COc1c(F)c(F)cc(F)c1F)n1cccc(NC(C)=O)c1=O [Compound 1, (S,S)-3-[2-(3-Acetylamino-2-oxo-2H-pyridin-1-yl)-butyrylamino]-4-oxo-5-(2,3,5,6-tetrafluoro-phenoxy)-pentanoic acid]
IC50 (rat cortical neurons): 1000 to 10000 nM
IC50 [1]: < 500 nM
IC50 (Jurkat E6.1 cells): < 500 nM

CC[C@@H](C(=O)NC(CC(=O)O)C(=O)CF)n1cccc(NC(=O)c2ccccc2)c1=O (stereo partly drawn) [Compound 30, (S)-3-[2-(3-Benzoylamino-2-oxo-2H-pyridin-1-yl)-butyrylamino]-5-fluoro-4-oxo-pentanoic acid]
IC50 (rat cortical neurons): 1000 to 10000 nM
IC50 (Jurkat E6.1 cells): < 500 nM

CCC(=O)Nc1cccn([C@@H](CC)C(=O)N[C@@H](CC(=O)O)C(=O)COc2c(F)c(F)cc(F)c2F)c1=O [Compound 2, (S,S)-4-Oxo-3-[2-(2-oxo-3-propionylamino-2H-pyridin-1-yl)-butyrylamino]-5-(2,3,5,6-tetrafluoro-phenoxy)-pentanoic acid]
IC50 (rat cortical neurons): < 1000 nM
IC50 [1]: < 500 nM
IC50 (Jurkat E6.1 cells): < 500 nM

CC[C@@H](C(=O)NC(CC(=O)O)C(=O)CF)n1cccc(NC(=O)c2ccccn2)c1=O (stereo partly drawn) [Compound 32, (S)-5-Fluoro-4-oxo-3-(2-{2-oxo-3-[(pyridine-2-carbonyl)-amino]-2H-pyridin-1-yl}-butyrylamino)-pentanoic acid]
IC50 (Jurkat E6.1 cells): < 500 nM

CC[C@@H](C(=O)NC(CC(=O)O)C(=O)CF)n1cccc(NC(=O)Cc2cccc(C)c2)c1=O (stereo partly drawn) [Compound 34, (S)-5-Fluoro-4-oxo-3-{2-[2-oxo-3-(2-m-tolyl-acetylamino)-2H-pyridin-1-yl]-butyrylamino}-pentanoic acid]
IC50 (rat cortical neurons): 1000 to 10000 nM
IC50 (Jurkat E6.1 cells): < 500 nM

CCC[C@@H](C(=O)NC(CC(=O)O)C(=O)CF)n1cccc(NC(=O)CC)c1=O (stereo partly drawn) [Compound 35, (S)-5-Fluoro-4-oxo-3-[2-(2-oxo-3-propionylamino-2H-pyridin-1-yl)-pentanoylamino]-pentanoic acid]
IC50 (rat cortical neurons): 1000 to 10000 nM
IC50 (Jurkat E6.1 cells): < 500 nM

CCC(=O)Nc1cccn([C@@H](C)C(=O)NC(CC(=O)O)C(=O)CF)c1=O (stereo partly drawn) [Compound 25, (S)-5-Fluoro-4-oxo-3-[2-(2-oxo-3-propionylamino-2H-pyridin-1-yl)-propionylamino]-pentanoic acid]
IC50 (Jurkat E6.1 cells): < 500 nM

C[C@@H](C(=O)NC(CC(=O)O)C(=O)CF)n1cccc(NC(=O)c2c(Cl)cccc2Cl)c1=O (stereo partly drawn) [Compound 27, (S)-3-{2-[3-(2,6-Dichloro-benzoylamino)-2-oxo-2H-pyridin-1-yl]-propionylamino}-5-fluoro-4-oxo-pentanoic acid]
IC50 (Jurkat E6.1 cells): < 500 nM

C[C@@H](C(=O)NC(CC(=O)O)C(=O)CF)n1cccc(NC(=O)Cc2ccccc2)c1=O (stereo partly drawn) [Compound 28, (S)-5-Fluoro-4-oxo-3-[2-(2-oxo-3-phenylacetylamino-2H-pyridin-1-yl)-propionylamino]-pentanoic acid]
IC50 [1]: 500 to 5000 nM
IC50 (Jurkat E6.1 cells): 500 to 2000 nM

CCCC(=O)Nc1cccn([C@@H](CC)C(=O)N[C@@H](CC(=O)O)C(=O)COc2c(F)c(F)cc(F)c2F)c1=O [Compound 3, (S,S)-3-[2-(3-Butyrylamino-2-oxo-2H-pyridin-1-yl)-butyrylamino]-4-oxo-5-(2,3,5,6-tetrafluoro-phenoxy)-pentanoic acid]
IC50 (rat cortical neurons): 1000 to 10000 nM
IC50 [1]: < 500 nM

CC[C@@H](C(=O)N[C@@H](CC(=O)O)C(=O)COc1c(F)c(F)cc(F)c1F)n1cccc(NC(=O)c2ccoc2)c1=O [Compound 8, (S,S)-3-(2-{3-[(Furan-3-carbonyl)-amino]-2-oxo-2H-pyridin-1-yl}-butyrylamino)-4-oxo-5-(2,3,5,6-tetrafluoro-phenoxy)-pentanoic acid]
IC50 (rat cortical neurons): 1000 to 10000 nM
IC50 [1]: 500 to 5000 nM

CC[C@@H](C(=O)NC(CC(=O)O)C(=O)CF)n1cccc(NC(=O)Cc2ccccc2)c1=O (stereo partly drawn) [Compound 33, (S)-5-Fluoro-4-oxo-3-[2-(2-oxo-3-phenylacetylamino-2H-pyridin-1-yl)-butyrylamino]-pentanoic acid]
IC50 (Jurkat E6.1 cells): < 500 nM

CC[C@@H](C(=O)N[C@@H](CC(=O)O)C(=O)COc1c(F)c(F)cc(F)c1F)n1cccc(NC(=O)COC)c1=O [Compound 6, (S,S)-3-{2-[3-(2-Methoxy-acetylamino)-2-oxo-2H-pyridin-1-yl]-butyrylamino}-4-oxo-5-(2,3,5,6-tetrafluoro-phenoxy)-pentanoic acid]
IC50 (rat cortical neurons): 1000 to 10000 nM
IC50 [1]: 500 to 5000 nM

CC[C@@H](C(=O)N[C@@H](CC(=O)O)C(=O)COc1c(F)c(F)cc(F)c1F)n1cccc(NC(=O)c2ccsn2)c1=O [Compound 10, (S,S)-3-(2-{3-[(Isothiazole-3-carbonyl)-amino]-2-oxo-2H-pyridin-1-yl}-butyrylamino)-4-oxo-5-(2,3,5,6-tetrafluorophenoxy)-pentanoic acid]
IC50 (rat cortical neurons): < 1000 nM
IC50 [1]: < 500 nM

CC[C@@H](C(=O)N[C@@H](CC(=O)O)C(=O)COc1c(F)c(F)cc(F)c1F)n1cccc(Nc2nccs2)c1=O [Compound 38, (S,S)-4-Oxo-3-{2-[2-oxo-3-(thiazol-2-ylamino)-2H-pyridin-1-yl]-butyrylamino}-5-(2,3,5,6-tetrafluoro-phenoxy)-pentanoic acid]
IC50 (rat cortical neurons): < 1000 nM
IC50 [1]: 500 to 5000 nM
